Measured values from patent US5990083A, “Multicatalytic protease inhibitors” (Cephalon, Inc., priority 1997, dated 1999).

Legend:
Assay type in all cases: cell-based, human
[1] = test system: wild-type and FALS mutant (Ala4→Val, Ile113→Thr) SOD-1 in 293 cells; test: Dose response of SOD-1 isoforms in stably transformed 293 cell lines
Procedure: Cells were maintained in G418 selection for three weeks at which time drug selection was removed and the G418-resistant colonies of each transformed cell type were pooled for further growth. Compound 14 was utilized in these studies.
Cell lines expressing the indicated SOD-1 isoforms were incubated with various concentrations of compound 14 for 24 hours at which time the SOD-1 levels were measured by densitometric scanning of immunoblots.

[2] = test system: Ala4→Val mutant SOD-1 in transformed 293 cells; test: Specificity of MCP activity in SOD-1 turnover, Ala4→Val cell line; conditions: 20 μM, 24 hours; FIG. 7; relative to untreated samples
Procedure: (§1) Res. Comm. (1988) 153: 1201.), a cell penetrating "calpain" inhibitor (calpain is a cysteine protease); and DK-3 (Enzyme Systems Products, Dublin, Calif. CBZ-Phe-Ala-CHN2) inhibits lysosomal protease activity. […] Cell lines expressing the indicated SOD-1 isoforms were incubated for 24 hours with the following protease inhibitors: Compound 14, 20 μM; Calpeptin, 10 μM; DK-3, 5 μM; Compound 16, 20 μM; or with DMSO as a negative control. After the 24 hours of incubation with the inhibitors, SOD-1 levels were measured by densitometric scanning of immunoblots. […] Each data point is the average of results from three experiments.

[3] = test system: wild-type SOD-1 in transformed 293 cells; test: Specificity of MCP activity in SOD-1 turnover, wild-type cell line; conditions: 20 μM, 24 hours; FIG. 7
Procedure: as §1

CC(C)C[C@@H](C=O)NC(=O)[C@H](CCCNC(=N)N[N+](=O)[O-])NC(=O)C(CCCCCCCCC#N)C1CCCC1 (stereo partly drawn) [Compound 14, 10-cyano-2-cyclopentyldecanoyl-N^g-nitro-L-arginyl-L-leucinal]
Concentration giving maximal SOD-1 accumulation ([1]; 24 hours, FIG. 6): approximately 20 μM
Reduction of wild-type and mutant SOD-1 degradation ([1]; summary statement): reduces wild-type and mutant SOD-1 degradation in a dose-dependent manner
Accumulation of SOD-1 protein levels ([1]; various concentrations, 24 hours, FIG. 6): significant accumulations of SOD-1 protein levels
Effect on turnover of the wild-type SOD-1 protein ([1]; wild-type SOD-1 cell line, dose response): statistically significant effect
Increase in the accumulation of SOD-1 protein (Ala4→Val mutant) [2]: three-fold
Wild-type SOD-1 accumulation [3]: slight increase
